Laboratory results as given in US20110034427A1, “Anti-aging properties of quercetin, 18alpha-glycyrrhetinic acid and hederagenin and their derivatives” (priority 2009, published 2011).
Entries after “also recorded” stand apart in the source; their conditions may differ.

Tests used:
[1] = system: proteasome subunits (β5, α7); assay: Levels of proteasome subunits (immunoblot); assay type: cell-based, human; conditions: HFL-1, 24 h treatment
Protocol: 8.1. HFL-1 HDFs were cultured as described in 5.1. Following the incubation with the various substances for 24 h, cells were collected, lysed and proteins were extracted and subjected to SDS-PAGE followed by immunoblot analysis against different proteasome subunits. Protein concentrations were determined using the Bradford method with BSA as a standard.
8.2. […] In total, the increased amount of proteasome subunits expression levels provide an explanation regarding the increased proteasome activities recorded in these cells.

[2] = system: Mouse melanocytes (B10F16 cell line); assay: Cellular whitening of melanocytes (cell pellet); assay type: cell-based; conditions: for whitening of melanocyte pellet (FIG. 10): 72 h; for whitening of melanocytes (conclusion): concentration not given
Protocol: A.1. Mouse melanocytes (B10F16 cell line) were used in in vitro conditions (growth at 37° C., 5% CO2 and 95% humidity).
A.2. The cells were maintained in Dulbecco's modified Eagle's medium (DMEM®; Invitrogen Life Technologies Inc.) supplemented with 10% (v/v) fetal calf serum, 100 Units/ma penicillin, 100 μg/ml strepromycin, 2 mM glutamine and 1% (v/v) non-essential amino acids (complete medium).
A.3. 10^5 cells were seeded in petri dishes and the following day they were fed with medium supplemented with the substances [final concentration for all substances: 5 μg/ml and 10 μg/ml]. Quercetin (QUER), 18α-glycyrrhetinic acid (18α GA) and hederagenin (HED) were diluted in DMSO whereas quercetin caprylate was diluted in caprilic/capric triglycerides (CAP). Therefore, the control cultures were incubated in medium supplemented with 0.1% DMSO or 0.1% CAP. The media were replenished every 24 h and the cells were kept under these conditions constantly for 72 h. Cells were then collected and pelleted and the cell pellet was photographed.
A.4. […] The result was positively correlated to the concentration of quercetin used.

[3] = system: HFL-1 human diploid fibroblasts; assay: Lifespan (cumulative population doublings) and morphology of human diploid fibroblasts under continuous treatment; assay type: cell-based; conditions: for appearance of the senescent phenotype (conclusion): continuous treatment, morphology, shape, β-galactosidase positive cells
Protocol: 1.1. HFL-1 human diploid fibroblasts (HDFs) were used in in vitro conditions (growth at 37° C., 5% CO2 and 95% humidity).
1.2. The cells were maintained in Dulbecco's modified Eagle's medium (DMEM®; Invitrogen Life Technologies Inc.) supplemented with 10% (v/v) fetal calf serum, 100 Units/ma penicillin, 100 μg/ml strepromycin, 2 mM glutamine and 1% (v/v) non-essential amino acids (complete medium).
1.3. The cells were constantly cultured in culture medium supplemented with the substances [final concentration for quercetin (QUER), 18α-glycyrrhetinic acid (18α GA), and hederagenin (HED): 2 μg/ml and for quercetin caprylate (QU-CAP) three concentrations were applied: 0.5, 2 and 5 μg/ml]. Quercetin, 18α-glycyrrhetinic acid and hederagenin were diluted in DMSO (dimethyl sulfoxide) whereas quercetin caprylate was diluted in caprilic/capric triglycerides (CAP). Therefore, the control cultures were incubated in medium supplemented with 0.1% DMSO or 0.1% CAP.
1.4. The cells were replenished with fresh media supplemented with the substances or the diluents every 24 h and their numbers were examined using a Coulter Z2® counter (Coulter Corporation) until they reached senescence (approximately after 13 weeks). The cumulative population doublings performed by each culture were calculated using the following formula: CPD=Σ[PD] where PD=LOG [Nfinal/Ninitial]/LOG [2], where N final represents the number of cells that were measured when each culture reached confluence and N initial represents the number of cells that was initially seeded.
1.5. Photographs of the cells maintained in cell culture and treated with the various substances for the same time period were taken.
1.6. […] More specifically, cells that were incubated with quercetin caprylate gave up to 2.8% more population doublings as compared to the population doublings performed by the relative control cultures. Cells that were incubated with the other substances gave up to 2.9% more population doublings as compared to their relative control cultures.
1.7. […] Cells that were treated with either of the tested substances maintained the young morphology for longer as compared to the control cultures (DMSO-treated and CAP-treated).

[4] = system: tyrosinase; assay: Tyrosinase expression (immunoblot); assay type: cell-based, mouse; conditions: for protein expression levels of tyrosinase (conclusion): concentration not given; for protein levels of tyrosinase (FIG. 11): mouse melanocytes, 72 h
Protocol: B.1. Mouse melanocytes were cultured as described in A.1.-A.3. After 72 h of treatment, the cells were collected, lysed and proteins were extracted and subjected to SDS-PAGE followed by immunoblot analysis against tyrosinase. Protein concentrations were determined using the Bradford method with BSA as a standard.

[5] = system: middle aged and terminally senescent HFL-1 HDFs; assay: Reversal of senescent phenotype in middle aged and terminally senescent cells; assay type: cell-based, human; conditions: for proliferation of middle aged cells (FIG. 3A): middle aged HFL-1 (cpd 59), QUER, 18α GA 2 μg/ml, QU-CAP 0.5, 2 and 5 μg/ml; for proliferation of middle aged cells (FIG. 3A) / proliferation of terminally senescent cells (FIG. 3B): 1 week; for morphology of middle aged cells (FIG. 4A) / β-galactosidase activity staining of middle aged cells (FIG. 4A): middle aged HFL-1, 1 week; for β-galactosidase activity staining of middle aged cells (FIG. 4A): QU-CAP all three concentrations; for reversal of the senescent phenotype / rejuvenation effect (conclusion): middle aged cells or terminally senescent cells; for proliferation of terminally senescent cells (FIG. 3B): terminally senescent HFL-1 (cpd 65), QUER 2 μg/ml, QU-CAP 2 and 5 μg/ml; for morphology of terminally senescent cells (FIG. 4B) / β-galactosidase activity of terminally senescent cells (FIG. 4B): terminally senescent HFL-1, 1 week, QU-CAP higher concentrations
Protocol: 3.1. HFL-1 HDFs that have senesced in vitro were used (growth at 37° C., 5% CO2 and 95% humidity). More specifically, middle aged HFL-1 HDFs (cpd 59) and terminally senescent HFL-1 HDFs (cpd 65) that had senesced in the absence of any substance were used.
3.2. The cells were seeded and maintained in complete medium (see 1.2). Culture medium supplemented with the substances [final concentration for quercetin (QUER), 18α-glycyrrhetinic acid (18α GA), and hederagenin (HED): 2 μg/ml and for quercetin caprylate (QU-CAP) three concentrations were applied: 0.5, 2 and 5 μg/ml] or the diluents (0.1% DMSO or 0.1% CAP) were added 24 h later. The cells were replenished with fresh media supplemented with the substances or the diluents every 24 h for 1 week and their numbers were then examined using a Coulter Z2® counter (Coulter Corporation).
3.3. Detection of β-galactosidase activity was performed in these cells as described above and photographs of the cells following β-galactosidase activity assay were taken.

[6] = system: HFL-1 HDFs; assay: Cellular survival with or without oxidative stress; assay type: cell-based, human; conditions: for survival to an oxidative stress challenge (conclusion): vs control cells
Protocol: 6.1. HFL-1 HDFs were cultured as described in 5.1. Following the incubation with the various substances cells were collected and counted using a Coulter Z2® counter (Coulter Corporation). In replica cultures, culture medium supplemented with the substances as described above were also supplemented with 300 μM H2O2 for 2.5 h. The cells were then thoroughly washed with PBS, supplemented with complete medium containing the examined substances and maintained in culture for additional 24 h. They were then collected and counted using a Coulter Z2® counter (Coulter Corporation).

[7] = system: HFL-1 HDFs; assay: Levels of oxidized proteins (OxyBlot analysis); assay type: cell-based, human; conditions: HFL-1, 24 h treatment; vs control
Protocol: 4.1. HFL-1 HDFs were cultured as described in 1.1-1.4. Cells treated with the substances for 24 h and were then lysed and proteins were extracted and subjected to SDS-PAGE (sodium dodecylsulfate polyacrylamide gel electrophorese) followed by OxyBlot analysis that detects the carbonylated groups on proteins. OxyBlot™ is a protein oxidation detection kit.
4.2. […] However it is worth mentioning that OxyBlot analysis detects only carbonylated groups on proteins which is just one oxidative stress-mediated post-translational protein modification.

Row | Molecule | protein levels of proteasome subunits β5 and α7 (FIG. 9) [1] | whitening of melanocyte pellet (FIG. 10) ([2]; both concentrations (5 and 10 μg/ml)) | whitening of melanocytes (conclusion) [2] | appearance of the senescent phenotype (conclusion) [3] | protein expression levels of tyrosinase (conclusion) [4] | protein levels of tyrosinase (FIG. 11) ([4]; 5 and 10 μg/ml) | proliferation of middle aged cells (FIG. 3A) [5] | morphology of middle aged cells (FIG. 4A) [5] | β-galactosidase activity staining of middle aged cells (FIG. 4A) [5] | reversal of the senescent phenotype / rejuvenation effect (conclusion) [5] | proliferation of terminally senescent cells (FIG. 3B) [5] | morphology of terminally senescent cells (FIG. 4B) [5] | β-galactosidase activity of terminally senescent cells (FIG. 4B) [5] | survival to an oxidative stress challenge (conclusion) [6] | more population doublings as compared to the relative control cultures ([3]; HFL-1, continuous treatment about 13 weeks, QU-CAP 0.5, 2 and 5 μg/ml, others 2 μg/ml, vs 0.1% DMSO or 0.1% CAP) | levels of oxidized (carbonylated) proteins (FIG. 5) [7] | whitening of melanocyte pellet (FIG. 10) ([2]; lower concentration (5 μg/ml)) | protein levels of tyrosinase (FIG. 11) ([4]; high concentration) | higher survival rate after oxidative stress as compared to control cultures ([6]; 300 μM H2O2 for 2.5 h, then additional 24 h in culture) | higher survival rate as compared to diluent-treated cells ([6]; 24 h treatment, without oxidative stress)
1 | O=c1c(O)c(-c2ccc(O)c(O)c2)oc2cc(O)cc(O)c12 [quercetin, Quercetin] | elevated protein levels | revealed whitening potential | revealed whitening potential | delay in the appearance of the senescent phenotype | decrease of the protein expression levels of tyrosinase | reduced protein levels of tyrosinase | higher proliferation rates | acquired a morphology more similar to the one exhibited by young cells | less positive to β-galactosidase activity staining | regained a younger morphology and were induced to limited but significant proliferation | limited but significant cell proliferation | acquired a morphology that exhibits more similarities with the morphology of young fibroblasts | many of those cells were negative for β-galactosidase activity | survived better |  |  |  |  |  | 
2 | Quercetin caprylate | elevated protein levels |  |  | delay in the appearance of the senescent phenotype |  | reduced protein levels of tyrosinase | higher proliferation rates | acquired a morphology more similar to the one exhibited by young cells | less positive to β-galactosidase activity staining | regained a younger morphology and were induced to limited but significant proliferation | limited but significant cell proliferation | acquired a morphology that exhibits more similarities with the morphology of young fibroblasts | many of those cells were negative for β-galactosidase activity | survived better | up to 2.8% | lower amounts of oxidized proteins; also recorded: less oxidized proteins |  |  |  | 
3 | CC1(C)CC[C@]2(C(=O)O)CC[C@]3(C)C(=CC[C@@H]4[C@@]5(C)CC[C@H](O)[C@@](C)(CO)[C@@H]5CC[C@]43C)[C@@H]2C1 [hederagenin, Hederagenin] | did not detect any up-regulation |  | revealed whitening potential |  | decrease of the protein expression levels of tyrosinase |  |  |  |  |  |  |  |  |  |  |  | revealed whitening potential | reduced protein levels of tyrosinase |  | 
4 | CC1(C)[C@@H](O)CC[C@]2(C)[C@H]3C(=O)C=C4[C@H]5C[C@@](C)(C(=O)O)CC[C@]5(C)CC[C@@]4(C)[C@]3(C)CC[C@@H]12 [18α-glycyrrhetinic acid] | similar |  | revealed whitening potential | delay in the appearance of the senescent phenotype | decrease of the protein expression levels of tyrosinase |  | higher proliferation rates | acquired a morphology more similar to the one exhibited by young cells | less positive to β-galactosidase activity staining | regained a younger morphology and were induced to limited but significant proliferation |  |  |  | survived better |  | lower amounts of oxidized proteins; also recorded: slightly lower levels | revealed whitening potential |  | 2% | 3.5%
